The text below walks through data of ChEMBL document CHEMBL5442168, “ASAP - In vitro liver microsomal stability” (2024).

Structures are written as SMILES. Values joined by “and” are separate entries in the source; they are usually repeats but may differ in a detail not shown here. Identical values can stand only once.

Data set [1] can be described thus: Mouse liver microsomal stability of compound in microsomal protein, PBS buffer pH 7.4, NADPH, glucose-6-phosphate and glucose-6-phosphate dehydrogenase media. Aliquotes were taken at 5 time points and after stopping the reaction, supernatants were analyzed using HPLC coupled with a tandem mass spectrometer. The elimination constant, half-life, and intrinsic clearance are determined as results using linear regression analysis. The assay has been performed by Enamine biological services, Bienta Ltd.The protocol is publicly available: dx.doi.org/10.17504/protocols.io.5qpvokdb9l4o/v1. Format: ADME, microsomes, Microsome. Conditions: for half-life / microsomal CLint: liver microsomes; for Remaining / Remaining (without cofactor) / CLint / T1/2: microsomes.

Data set [2] can be described thus: Human liver microsomal stability of compound in microsomal protein, PBS buffer pH 7.4, NADPH, glucose-6-phosphate and glucose-6-phosphate dehydrogenase media. Aliquotes were taken at 5 time points and after stopping the reaction, supernatants were analyzed using HPLC coupled with a tandem mass spectrometer. The elimination constant, half-life, and intrinsic clearance are determined as results using linear regression analysis. The assay has been performed by Enamine biological services, Bienta Ltd.The protocol is publicly available: dx.doi.org/10.17504/protocols.io.5qpvokdb9l4o/v1. Format: ADME, microsomes, Microsome. Particulars: for half-life / microsomal CLint: liver microsomes; for Remaining / Remaining (without cofactor) / CLint / T1/2: microsomes. (Microsomes from liver hold many membrane-bound enzymes, among them those of drug oxidation.)
For Remaining (without cofactor) in this document: time not given here.
For Remaining in this document: time not given here.

Consider `O=C(Nc1ccccc1)Nc1ccc(C(=O)NC2c3cccc(O)c3CC2C(=O)O)cc1` (stereo not drawn), for which, in data set [1], the half-life is 1070 min, the microsomal CLint was 2 µL/min/mg, the Remaining was found to be 111% and the “Remaining (without cofactor)” value is recorded as 99%. Besides, in data set [2], the half-life was determined as 187 min, the microsomal CLint was 9 µL/min/mg, the Remaining is 123% and the “Remaining (without cofactor)” value was 96%.

Regarding `CC(C)[C@@H](Nc1ncnc2[nH]c(-c3cnn(CC(=O)N(C)C)c3)cc12)c1ccc2c(c1)S(=O)(=O)CCC2`, in data set [1], the CLint was 68 µL/min/mg and 31 µL/min/mg; the Remaining was 31% and 59%; the “Remaining (without cofactor)” value is 92% and 102%; the T1/2 is 24.6 min and 53.8 min. In data set [2], the CLint was 106 µL/min/mg and 297 µL/min/mg; the “Remaining (without cofactor)” value was 92% and 99%; the T1/2 was 15.8 min and 5.6 min.

Regarding `CCNC(=O)c1cc2c(N[C@H](c3ccc4c(c3)S(=O)(=O)CCC4)C(C)C)ncnc2[nH]1`, in data set [1], the half-life was 26.3 min, the intrinsic metabolic clearance (microsomal CLint) was determined as 64 µL/min/mg, the Remaining is on record as 34% and the “Remaining (without cofactor)” value is given as 97%. Further, in data set [2], the half-life is 15.4 min, the microsomal CLint stood at 109 µL/min/mg, the Remaining came to 17% and the “Remaining (without cofactor)” value is 102%.

On to `CC(C)(C)[C@@H](Nc1ncnc2[nH]c(-c3cnn(CC(N)=O)c3)cc12)c1ccc2c(n1)OCCO2`, for which, in data set [1], the half-life amounted to 53.1 min; the microsomal CLint was 31 µL/min/mg; the CLint came to 30 µL/min/mg; the Remaining is 60% and 59%. In data set [1], the “Remaining (without cofactor)” value is 90% and 109%; the T1/2 was 56.2 min. In data set [2], the half-life worked out at 46 min; the microsomal CLint stood at 36 µL/min/mg; the CLint turned out to be 42 µL/min/mg; the Remaining is 55% and 49%. Moreover, in data set [2], the “Remaining (without cofactor)” value was 96% and 107%; the T1/2 came to 39.8 min.

On to `CC(C)[C@H](CO)Nc1ncnc2[nH]ccc12`, for which, in data set [1], the half-life is 171 min, the microsomal CLint worked out at 10 µL/min/mg, the Remaining was 90% and the “Remaining (without cofactor)” value was found to be 93%. In addition, in data set [2], the half-life amounted to 289 min, the microsomal CLint was 6 µL/min/mg, the Remaining came out at 119% and the “Remaining (without cofactor)” value is recorded as 99%.

In the case of `CNCc1cc(-c2cc3c(N[C@H](c4ccc5c(c4)S(=O)(=O)CCC5)C(C)C)ncnc3[nH]2)co1`, in data set [1], the half-life is 41.8 min, the microsomal CLint worked out at 40 µL/min/mg, the Remaining is 51% and the “Remaining (without cofactor)” value is on record as 96%. In data set [2], the half-life stood at 25.1 min, the microsomal CLint was found to be 67 µL/min/mg, the Remaining stood at 33% and the “Remaining (without cofactor)” value worked out at 98%.

As for `CC(C)[C@@H](Nc1ncnc2[nH]c(-c3ccc4cncn4c3)cc12)c1ccc2c(c1)S(=O)(=O)CCC2`, in data set [1], the half-life turned out to be 9.8 min, the microsomal CLint was 170 µL/min/mg, the Remaining is 6% and the “Remaining (without cofactor)” value stood at 87%. Also, in data set [2], the half-life is 8 min, the microsomal CLint came to 210 µL/min/mg, the Remaining is on record as 4% and the “Remaining (without cofactor)” value was determined as 97%.

In the case of `CC(C)[C@H](Nc1ncnc2[nH]c(-c3cnn(C)c3C#N)cc12)c1ccc2c(n1)NC(=O)CO2`, in data set [1], the half-life was determined as 12.8 min, the microsomal CLint came out at 131 µL/min/mg, the Remaining is 12% and the “Remaining (without cofactor)” value came to 85%. In data set [2], the half-life is 12.2 min, the microsomal CLint was 137 µL/min/mg, the Remaining amounted to 10% and the “Remaining (without cofactor)” value was 92%.

As for `CC(C)[C@@H](Nc1ncnc2[nH]c(-c3cnn(C)c3)cc12)c1ccc2c(c1)S(=O)(=O)NCC2`, in data set [1], the half-life amounted to 19.1 min, the microsomal CLint worked out at 87 µL/min/mg, the Remaining came out at 23% and the “Remaining (without cofactor)” value was 92%. Further, in data set [2], the half-life turned out to be 13.9 min, the microsomal CLint was 120 µL/min/mg, the Remaining is 13% and the “Remaining (without cofactor)” value came to 98%.

Take `CC(C)[C@@H](Nc1ncnc2[nH]c(-c3cnn(C)c3C#N)cc12)c1ccc2c(n1)OCCO2`: in data set [1], the CLint is 169 µL/min/mg and 139 µL/min/mg and 371 µL/min/mg; the Remaining is 6% and 10% and 1%; the “Remaining (without cofactor)” value is 110% and 101% and 99%; the T1/2 was 9.9 min and 12 min and 4.5 min. Further, the “Remaining (without cofactor)” value in data set [2] was 104% and 98% and 93%.

For `CC(C)[C@@H](Nc1ncnc2[nH]c(-c3cncc(S(C)(=O)=O)c3)cc12)c1ccc2c(c1)S(=O)(=O)CCC2`, in data set [1], the half-life came to 6.1 min, the microsomal CLint was 272 µL/min/mg, the Remaining is reported as 1% and the “Remaining (without cofactor)” value is 112%. In data set [2], the half-life was 2.6 min, the microsomal CLint was 635 µL/min/mg, the Remaining is on record as 1% and the “Remaining (without cofactor)” value came to 104%.

For the molecule `CC(C)[C@H](Nc1ncnc2[nH]c(-c3cnn(CC(=O)N(C)C)c3)cc12)c1ccc2c(c1)OCCO2`, in data set [1], the half-life came out at 48.1 min, the microsomal CLint was found to be 35 µL/min/mg, the Remaining is 54% and the “Remaining (without cofactor)” value worked out at 102%. Moreover, in data set [2], the half-life is 3.3 min, the microsomal CLint was determined as 500 µL/min/mg, the Remaining is 0% and the “Remaining (without cofactor)” value was determined as 115%.

Turning to `CC(C)[C@@H](Nc1ncnc2[nH]cc(C(=O)NC3CC3)c12)c1ccc2c(c1)S(=O)(=O)CCC2`, in data set [1], the Remaining is 2% and 0%; the “Remaining (without cofactor)” value was 101% and 102%. Besides, the “Remaining (without cofactor)” value in data set [2] is 90% and 111%.

Regarding `CC(C)[C@H](Nc1ncnc2[nH]c(-c3cnn(C)c3)cc12)c1ccc2c(c1)S(=O)(=O)CCC2`, in data set [1], the half-life was 6.5 min, the microsomal CLint turned out to be 255 µL/min/mg, the Remaining turned out to be 1% and the “Remaining (without cofactor)” value came to 98%. For the same molecule, in data set [2], the half-life is 9.9 min, the microsomal CLint was determined as 169 µL/min/mg, the Remaining was found to be 7% and the “Remaining (without cofactor)” value came out at 95%.

As for `CNC(=O)Cn1cc(-c2cc3c(N[C@@H](c4ccc5c(c4)OCCO5)C(C)C)ncnc3[nH]2)cn1`, in data set [1], the half-life stood at 35.7 min, the microsomal CLint stood at 47 µL/min/mg, the Remaining is given as 46% and the “Remaining (without cofactor)” value was 90%. Also, in data set [2], the half-life was found to be 14 min, the microsomal CLint amounted to 119 µL/min/mg, the Remaining is on record as 14% and the “Remaining (without cofactor)” value was 92%.

With `CNCc1cc(-c2cc3c(N[C@@H](c4ccc5c(c4)S(=O)(=O)NCC5)C(C)C)ncnc3[nH]2)co1`, in data set [1], the half-life was found to be 40 min, the microsomal CLint is 42 µL/min/mg, the Remaining came out at 49% and the “Remaining (without cofactor)” value worked out at 95%. In addition, in data set [2], the half-life is 35.9 min, the microsomal CLint was 46 µL/min/mg, the Remaining worked out at 47% and the “Remaining (without cofactor)” value was 93%.

Regarding `COCCNC(=O)c1c[nH]c2ncnc(N[C@@H](c3ccc4c(c3)S(=O)(=O)CCC4)C(C)C)c12`, in data set [1], the half-life came to 1.9 min, the intrinsic metabolic clearance (microsomal CLint) is 888 µL/min/mg, the Remaining was found to be 0% and the “Remaining (without cofactor)” value was 99%. Further, in data set [2], the half-life is 3.1 min, the microsomal CLint turned out to be 540 µL/min/mg, the Remaining was 0% and the “Remaining (without cofactor)” value is on record as 106%.

In data set [1], `CC(C)[C@@H](Nc1ncnc2[nH]c(-c3cnn(C)c3C#N)cc12)c1ccc2c(c1)S(=O)(=O)CCC2` displayed a half-life of 3.8 min, a microsomal CLint of 440 µL/min/mg, a CLint of 709 µL/min/mg and a Remaining of 0%. In addition, in data set [1], the “Remaining (without cofactor)” value was 96% and 106%; the T1/2 is on record as 2.4 min. In data set [2], the half-life came out at 3.4 min; the microsomal CLint amounted to 490 µL/min/mg; the CLint amounted to 516 µL/min/mg; the Remaining was 1% and 0%. Moreover, in data set [2], the “Remaining (without cofactor)” value is 94% and 101%; the T1/2 is listed as 3.2 min.

As to `CC(C)[C@@H](Nc1ncnc2[nH]c(-c3cnn(C)c3C#N)cc12)c1ccc2c(c1)OCCO2`, in data set [1], the half-life amounted to 7.7 min; the microsomal CLint stood at 218 µL/min/mg; the CLint stood at 129 µL/min/mg; the Remaining is 3% and 13%. In data set [1], the “Remaining (without cofactor)” value was 97% and 106%; the T1/2 stood at 13 min. Moreover, in data set [2], the half-life worked out at 22.6 min; the microsomal CLint came to 74 µL/min/mg; the CLint amounted to 47 µL/min/mg; the Remaining is 25% and 46%. In addition, in data set [2], the “Remaining (without cofactor)” value was 111% and 101%; the T1/2 is listed as 35.4 min.

For `CC(C)[C@H](Nc1ncnc2[nH]c(-c3cnn(CC(N)=O)c3)cc12)c1ccc2c(c1)OCCO2`, in data set [1], the half-life was determined as 104 min, the microsomal CLint came out at 16 µL/min/mg, the Remaining worked out at 80% and the “Remaining (without cofactor)” value is reported as 104%. Further, in data set [2], the half-life stood at 35.4 min, the microsomal CLint stood at 47 µL/min/mg, the Remaining is 43% and the “Remaining (without cofactor)” value is reported as 102%.

What is called half-life is the time needed for the level to fall by half in the phase considered. The low end stands for rapid decline, the high end for slow decline. In general, microsomal CLint refers to a measure of how fast metabolising enzymes remove a compound, apart from limits set by blood flow. A high value points to faster metabolism.
